Source: publication PMC12675387, “Receptor interaction profiles of 4-alkoxy-2,6-dimethoxyphenethylamines (Ψ derivatives) and related amphetamines” (Frontiers in Pharmacology, 2025)

Experiments:
human 5-HT2B receptor = target: T1, human 5-HT2B receptor (Homo sapiens, UniProt P41595); experiment: Activation potency and efficacy at the 5-HT2B receptor (Fluo-4 calcium, HEK 293 cells); format: cell-based
T1 construct: expressed in transfected cells; host or cells: HEK 293 cells
Description: The activation potency and efficacy at the 5-HT2B receptor were determined as previously described by [Luethi et al. (2018)]. In summary, HEK 293 cells stably transfected with the human 5-HT2B receptor were seeded in poly-D-lysine-coated 96 well plates at a density of 50,000 cells per well overnight at 37 °C in high glucose Dulbecco’s modified Eagle’s medium (DMEM; Invitrogen, Zug, Switzerland) supplemented with 10% fetal calf serum (non-dialyzed and heat-inactivated), 250 mg/L Geneticin, and 100 U/mL penicillin, and 100 μg/mL streptomycin (Gibco). The growth medium was removed by snap inversion and the cells were exposed to 100 μL calcium indication Fluo-4-solution (Molecular Probes, Eugene, OR, United States) for 45 min at 31 °C. Thereafter, the Fluo-4-solution was removed once again by snap inversion and was replaced with fresh 100 μL Fluo-4-solution. Next, the cells were washed with HBSS and 20 mM HEPES using the EMBLA cell washer and then exposed to the assay buffer (100 μL per well). Afterwards, 25 μL of test compounds diluted in assay buffer were added to the plate online. Dose–response curves were determined using nonlinear regression and EC50 values were calculated. The activation efficacy was calculated relative to the 5-HT activity (defined as 100%).

[1] = initial doses, anecdotal; ref Trachsel et al., 2013; cited from earlier work
h5-HT2C receptor = target: T2, h5-HT2C receptor (Homo sapiens, UniProt P28335); experiment: Radioligand binding, 5-HT2C receptor ([3H]mesulergine)
T2 sequence (P28335 33-458): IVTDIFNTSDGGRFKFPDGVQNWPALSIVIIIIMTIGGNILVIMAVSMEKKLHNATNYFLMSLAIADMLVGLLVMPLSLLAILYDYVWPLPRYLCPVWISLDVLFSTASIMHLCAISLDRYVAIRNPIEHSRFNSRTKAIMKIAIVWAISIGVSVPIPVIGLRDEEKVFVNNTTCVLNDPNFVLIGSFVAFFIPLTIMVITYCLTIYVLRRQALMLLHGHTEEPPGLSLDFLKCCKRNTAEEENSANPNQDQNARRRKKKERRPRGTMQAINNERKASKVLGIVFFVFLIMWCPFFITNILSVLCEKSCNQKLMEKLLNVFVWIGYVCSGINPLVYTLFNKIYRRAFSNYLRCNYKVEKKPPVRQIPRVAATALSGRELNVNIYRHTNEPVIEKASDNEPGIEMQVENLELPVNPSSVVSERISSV

rTAAR1 = rTAAR1 (Rattus norvegicus, UniProt Q923Y9); experiment: Radioligand binding, rat TAAR1 ([3H]RO5166017)
rTAAR1, sequence (Q923Y9 whole entry): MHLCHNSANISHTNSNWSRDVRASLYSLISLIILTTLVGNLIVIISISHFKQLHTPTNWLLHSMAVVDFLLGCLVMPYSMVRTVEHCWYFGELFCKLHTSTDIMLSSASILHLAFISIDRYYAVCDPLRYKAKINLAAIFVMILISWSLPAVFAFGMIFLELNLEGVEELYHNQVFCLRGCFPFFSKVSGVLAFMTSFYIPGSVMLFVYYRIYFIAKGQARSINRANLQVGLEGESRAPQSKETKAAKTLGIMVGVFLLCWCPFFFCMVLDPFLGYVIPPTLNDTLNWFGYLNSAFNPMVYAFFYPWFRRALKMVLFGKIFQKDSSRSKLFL

human 5-HT2A receptor = target: T3, human 5-HT2A receptor (Homo sapiens, UniProt P28223); experiment: Activation potency and efficacy at the 5-HT2A receptor (FLIPR calcium, NIH-3T3 cells); format: cell-based
T3 construct: expressed in transfected cells; host or cells: NIH-3T3 mouse embryonic fibroblasts
T3 sequence (P28223 whole entry): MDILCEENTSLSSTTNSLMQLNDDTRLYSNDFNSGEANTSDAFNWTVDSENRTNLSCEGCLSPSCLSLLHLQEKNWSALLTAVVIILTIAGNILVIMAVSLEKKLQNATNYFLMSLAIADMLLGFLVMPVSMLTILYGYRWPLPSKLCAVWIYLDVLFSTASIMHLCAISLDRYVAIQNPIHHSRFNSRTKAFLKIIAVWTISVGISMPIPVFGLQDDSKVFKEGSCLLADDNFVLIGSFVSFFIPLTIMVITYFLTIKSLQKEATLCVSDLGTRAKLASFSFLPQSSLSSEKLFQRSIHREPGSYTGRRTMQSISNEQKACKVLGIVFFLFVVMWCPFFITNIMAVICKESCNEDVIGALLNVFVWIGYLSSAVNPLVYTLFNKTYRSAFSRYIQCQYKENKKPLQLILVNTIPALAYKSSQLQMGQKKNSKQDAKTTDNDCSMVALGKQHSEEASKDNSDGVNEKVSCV
Description: The activation potency and efficacy at the 5-HT2A receptor were determined as previously described by [Luethi et al. (2018)]. In short, mouse embryonic fibroblasts (NIH-3T3 cells) stably transfected with the human 5-HT2A receptor were seeded in poly-D-lysine-coated 96 well plates at a density of 70,000 cells per 100 μL. Next, the cells were incubated in HEPES-Hank’s Balanced Salt Solution (HBSS) buffer (Gibco) for 1 h at 37 °C; the cells were then incubated with 100 μL of dye solution (fluorescence imaging plate reader [FLIPR] calcium 5 assay kit; Molecular Devices, Sunnyvale, CA, United States) per well for 1 h at 37 °C. The plate was then inserted into the FLIPR and 25 μL of the test compounds diluted in HEPES-HBSS buffer containing […] probenecid were added online. Increase of the fluorescence signal was measured and the activation potency (EC50) was calculated from the dose-response curves using nonlinear regression. The activation efficacy was calculated relative to 5-HT activity (defined as 100% activity).

hNET = hNET (Homo sapiens, UniProt P23975); experiment: Radioligand binding, NET (N-methyl-[3H]nisoxetine)
hNET, sequence (P23975 whole entry): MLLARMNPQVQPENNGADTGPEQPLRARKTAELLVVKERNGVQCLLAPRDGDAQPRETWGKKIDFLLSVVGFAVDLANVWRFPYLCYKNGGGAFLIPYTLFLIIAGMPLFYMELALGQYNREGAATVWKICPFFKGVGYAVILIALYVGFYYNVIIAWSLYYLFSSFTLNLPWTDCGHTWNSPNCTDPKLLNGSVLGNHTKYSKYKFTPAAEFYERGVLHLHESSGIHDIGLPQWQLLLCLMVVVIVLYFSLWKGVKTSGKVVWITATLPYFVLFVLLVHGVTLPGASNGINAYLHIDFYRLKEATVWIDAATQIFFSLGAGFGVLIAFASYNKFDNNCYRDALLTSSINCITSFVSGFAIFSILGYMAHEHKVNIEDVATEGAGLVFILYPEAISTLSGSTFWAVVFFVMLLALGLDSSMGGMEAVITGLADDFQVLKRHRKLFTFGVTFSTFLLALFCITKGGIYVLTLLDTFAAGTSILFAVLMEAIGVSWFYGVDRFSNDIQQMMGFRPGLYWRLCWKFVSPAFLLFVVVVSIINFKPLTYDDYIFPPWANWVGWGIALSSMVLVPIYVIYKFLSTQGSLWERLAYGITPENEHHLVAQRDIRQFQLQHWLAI

hα1A adrenergic receptor = target: T4, hα1A adrenergic receptor (Homo sapiens, UniProt P35348); experiment: Radioligand binding, α1A adrenergic receptor ([3H]prazosin); details: hα1A Ki ± SD
T4 sequence (P35348 1-466): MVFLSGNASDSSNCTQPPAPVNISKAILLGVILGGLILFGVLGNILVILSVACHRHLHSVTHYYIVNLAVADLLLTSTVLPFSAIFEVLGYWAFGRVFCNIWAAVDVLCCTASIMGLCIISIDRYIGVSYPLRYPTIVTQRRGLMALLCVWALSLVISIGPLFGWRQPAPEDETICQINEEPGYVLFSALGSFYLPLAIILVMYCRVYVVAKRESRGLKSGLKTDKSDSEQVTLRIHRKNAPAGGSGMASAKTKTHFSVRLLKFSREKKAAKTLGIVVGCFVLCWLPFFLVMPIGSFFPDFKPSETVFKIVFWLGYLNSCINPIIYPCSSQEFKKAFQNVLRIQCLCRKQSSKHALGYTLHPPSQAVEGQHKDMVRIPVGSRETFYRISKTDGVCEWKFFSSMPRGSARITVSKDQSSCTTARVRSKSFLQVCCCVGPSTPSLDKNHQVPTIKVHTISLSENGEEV

mTAAR1 = mTAAR1 (Mus musculus, UniProt Q923Y8); experiment: Radioligand binding, mouse TAAR1 ([3H]RO5166017)
mTAAR1, sequence (Q923Y8 whole entry): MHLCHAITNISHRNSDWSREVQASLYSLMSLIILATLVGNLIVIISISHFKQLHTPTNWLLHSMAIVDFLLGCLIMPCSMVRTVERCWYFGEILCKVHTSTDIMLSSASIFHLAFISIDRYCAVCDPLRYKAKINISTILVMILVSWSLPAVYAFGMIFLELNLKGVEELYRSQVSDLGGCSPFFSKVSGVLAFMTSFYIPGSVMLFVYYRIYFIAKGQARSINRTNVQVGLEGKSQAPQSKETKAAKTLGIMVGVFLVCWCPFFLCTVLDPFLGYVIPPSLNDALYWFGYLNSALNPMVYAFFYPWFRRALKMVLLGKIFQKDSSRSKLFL

T1 sequence (P41595 whole entry): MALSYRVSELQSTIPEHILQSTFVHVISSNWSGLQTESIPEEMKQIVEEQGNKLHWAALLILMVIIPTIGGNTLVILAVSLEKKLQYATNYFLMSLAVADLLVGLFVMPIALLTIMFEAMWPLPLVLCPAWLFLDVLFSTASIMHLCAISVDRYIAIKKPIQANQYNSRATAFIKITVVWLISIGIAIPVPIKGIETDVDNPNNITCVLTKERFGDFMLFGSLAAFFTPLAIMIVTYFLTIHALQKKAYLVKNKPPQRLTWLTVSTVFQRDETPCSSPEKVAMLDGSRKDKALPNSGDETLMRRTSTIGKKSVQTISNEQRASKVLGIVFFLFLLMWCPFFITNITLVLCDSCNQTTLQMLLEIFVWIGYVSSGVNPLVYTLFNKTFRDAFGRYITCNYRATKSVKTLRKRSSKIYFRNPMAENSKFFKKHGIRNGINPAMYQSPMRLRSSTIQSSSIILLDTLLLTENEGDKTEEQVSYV

COc1cc(OC(F)F)cc(OC)c1CCN [Ψ-2C-O-35, 4-(2,2-difluoromethoxy)-2,6-dimethoxyphenethylamine]
EC50 (human 5-HT2B receptor): 300 ± 230 nM | Emax (human 5-HT2B receptor; HEK293, relative to 5-HT (100%), read-out: h5-HT2B activation efficacy Emax ± SD): 20 ± 13% | dose with some psychoactivity in humans [1]: 17 mg | Ki (h5-HT2C receptor): 510 ± 140 nM | Ki (rTAAR1): 51 ± 4 nM | EC50 (human 5-HT2A receptor): 260 ± 200 nM | Emax (human 5-HT2A receptor; NIH3T3, relative to 5-HT (100%), read-out: h5-HT2A activation efficacy Emax ± SD): 16 ± 2% | Ki (hNET): > 8800 nM | Ki (hα1A adrenergic receptor): 2100 nM | Ki (mTAAR1): 680 ± 120 nM
